{
  "source": "patent US4603044A",
  "about": "“Hepatocyte Directed Vesicle delivery system” (Technology Unlimited, Inc., priority 1984, dated 1986)",
  "molecules": {"B1": {"name": "GH: free growth hormone given subcutaneously to control rats (protein, UniProt P01244 27-216, looked up)", "Somatotropin": "FPAMPLSSLFANAVLRAQHLHQLAADTYKEFERAYIPEGQRYSIQNAQAAFCFSETIPAPTGKEEAQQRTDMELLRFSLLLIQSWLGPVQFLSRIFTNSLMFGTSDRVYEKLKDLEEGIQALMQELEDGSPRIGQILKQTYDKFDANMRSDDALLKNYGLLSCFKKDLHKAETYLRVMKCRRFAESSCAF"}},
  "key": {"[1]": {"tested_on": "insulin-deficient (diabetic) dog", "assay": "Conversion of hepatic glucose output to uptake in insulin-deficient (diabetic) dog, intravenous infusion", "format": "in vivo", "details": "insulin alone", "source_text": "The response of HDV Insulin to be measured was the conversion of hepatic glucose output to uptake by measuring the glucose (Beckman Glucose Analyzer) levels of simultaneously obtained portal and hepatic vein blood. Diabetes had been induced by the method of Black, (Am. J. Pathol. Vol 98, No. 2, pg 295-305, 1980) and sampling was done via portal and hepatic vein catheters acutely placed under general anesthesia. The dog had been fasted from food for twenty-four hours and taken off of exogenously-administered insulin for forty-eight hours.\nThe state of hepatic glucose output occurs when the hepatic vein glucose level (in mg%) exceeds the portal vein glucose level. Hepatic glucose uptake is the reverse.\nThe data for the experiment are found in the graph of FIG. 4. At \"0\" minutes the dog is in glucose output, and this output is maintained through the \"23\" and \"35\" minute samples, even though glucose is infused via a mesenteric vein at a rate of 0.5 g/kg body weight/hour. An intact (non-diabetic) animal would have immediately converted to glucose uptake. This dog's diabetic state is confirmed by its' not converting to glucose uptake at these times.\nFollowing the \"35\" minutes sampling, HDV Insulin was infused via the left external jugular vein at a rate of 0.03 mU/kg/minute. […] The minimum infusion rate for insulin alone is 6.25 mU/kg/minute. […]"}, "[2]": {"tested_on": "selectively denervated dog", "assay": "Conversion of hepatic glucose output to uptake in selectively denervated dog, intravenous infusion (biliverdin target)", "format": "in vivo", "method": "This dog, when infused with glucose, has portal vein glucose values (mg % measured with a Beckman Glucose Analyzer) that are less than hepatic vein glucose, indicating a hep hepatic glucose output. This is clearly seen in the data presented in the of FIG. 6. The dog is in a state of glucose output for time 15, 30 and 40 minutes. […]"}, "[3]": {"tested_on": "denervated dogs (diabetic-like state)", "assay": "Blood glucose response to a standardized meal in selectively denervated (diabetic-like) dogs", "format": "in vivo, dog", "details": "serotonin 150 ug, intravenously or subcutaneously", "source_text": "In a first study testing the HDV system, a chronic dog model was selected which mimics the early stages of adult onset diabetes mellitus, now referred to as diabetes mellitus Type II. In this model, the diabetes was induced by selective denervation.\nThis study was divided into three phases, studying the blood glucose response of the animals while in the (1) normal state; (2) diabetic-like state; and (3) successful treatment of the diabetic-like state with subcutaneously administered HDV containing serotonin.\nThe experimental plan required four normal, healthy mongrel dogs. […] The graph of FIG. 1 is a comparison chart for in vivo testing.\nThe data for this normal phase are shown in the graph as the line indicated by reference number 10. The data are expressed as a percentage of the fasting blood glucose value taken prior to feeding. Since four dogs were used, the average or mean value for the data is plotted. The data are statistically analyzed, and the variation in the data is shown by the small vertical bars above and below the data points. These bars are the standard error of the mean (SEM).\nFollowing the acquisition of the data described above, the dogs were surgically denervated to induce the diabetic-like state and allowed a week to recover. At this time the study is again repeated, and the data are shown as the line indicated by reference number 12, along with the error bars (SEM). […]"}, "[4]": {"tested_on": "selectively denervated dog", "assay": "Conversion of hepatic glucose output to uptake in selectively denervated dog, intraduodenal injection", "format": "in vivo", "details": "infusion for thirty minutes", "method": "In this model, the response of the HDV Serotonin was the conversion of hepatic glucose output to uptake. This conversion was determined by measuring the glucose levels (Beckman Glucose Analyzer) in simultaneously obtained blood samples from the portal and hepatic veins. Sampling was by means of sampling catheters acutely placed under general anesthesia.\nThe state of hepatic glucose output occur when the level of glucose (mg %) in the hepatic vein exceeds that of the portal vein. Hepatic glucose uptake is the reverse situation.\nData for the experiment are found in the graph of FIG. 5. At \"0\" minutes, during the control period, the animal is in a state of hepatic glucose output. Because of the selective denervation, the animal stays in output (at 20 and 55 minutes), even though glucose is being infused at a rate of 0.5 g/kg body weight/hour via a mesenteric vein.\nThe HDV Serotonin is injected into the duodenum (0.8 ml containing 3 ug serotonin/kg) at 60 minutes."}, "[5]": {"tested_on": "hypophysectomized rats", "assay": "Growth stimulation in hypophysectomized rats, daily subcutaneous injection", "format": "in vivo, rat", "method": "The HDVGH was administered to rats daily by subcutaneous injection. The control rats required 10 ugGH per day (also given subcutaneously) to maintain normal growth of 1 g weight gain per day. The HDVGH treated rats attained normal growth rates with dosages of HDVGH of 0.15 to 1.5 ug per day. Thus, the HDVGH required only 1/7th to 1/50th of the regular dose of growth hormone. The HDVGH was superpotent and was efficacious when given by subcutaneous injection."}},
  "data": [
    {"molecule": "insulin: free hormone insulin, comparator to HDV Insulin", "values": [
      {"measurement": "minimum infusion rate for conversion to hepatic glucose uptake", "setting": "[1]", "result": 6.25, "unit": "mU/kg/minute"}
    ]},
    {"molecule": "NCCc1c[nH]c2ccc(O)cc12", "note": "[serotonin, 5-hydroxytryptamine]", "values": [
      {"measurement": "rate of free serotonin infusion required", "setting": "[2]", "result": 30, "unit": "µg/kg/min"},
      {"measurement": "effect of free serotonin on post-meal blood glucose elevation", "setting": "[3]", "result": "not effective"},
      {"measurement": "intraportal infusion of free serotonin required for the same pharmacologic effect", "setting": "[4]", "result": "10-30 ug/kg body weight/minute"}
    ]},
    {"molecule": "B1", "values": [
      {"measurement": "daily dose to attain/maintain normal growth (1 g weight gain per day)", "setting": "[5]", "result": 10, "unit": "ug per day"}
    ]}
  ]
}
